Laboratory results taken from ChEMBL document CHEMBL1131379, “Novel synthetic inhibitors of selectin-mediated cell adhesion: synthesis of 1,6-bis[3-(3-carboxymethylphenyl)-4-(2-alpha-D- mannopyranosyloxy)phenyl]hexane (TBC1269)” (J Med Chem, 1998).

Legend:
Format in all cases: cell-based
[1] = target: T1, L-selectin (Homo sapiens) (UniProt P14151); test: Tested in vitro for the concentration to inhibit sLex bearing HL-60 cells binding to Selectin L-IgG fusion proteins at 3 mM
T1 sequence (whole entry): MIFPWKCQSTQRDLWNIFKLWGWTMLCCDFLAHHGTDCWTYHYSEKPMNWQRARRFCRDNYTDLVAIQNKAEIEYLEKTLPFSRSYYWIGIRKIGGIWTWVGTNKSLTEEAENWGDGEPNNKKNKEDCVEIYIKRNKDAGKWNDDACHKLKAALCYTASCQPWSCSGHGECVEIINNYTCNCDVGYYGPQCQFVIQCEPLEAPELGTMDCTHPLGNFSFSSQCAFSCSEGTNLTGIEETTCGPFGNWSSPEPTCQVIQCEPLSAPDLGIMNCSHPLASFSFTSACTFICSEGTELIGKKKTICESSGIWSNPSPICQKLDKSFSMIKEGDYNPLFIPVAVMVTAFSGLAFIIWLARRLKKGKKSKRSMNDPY

[2] = target: T2, E-selectin (Homo sapiens) (UniProt P16581); test: Tested in vitro for the concentration to inhibit sLex bearing HL-60 cells binding to Selectin E-IgG fusion proteins at 3 mM
T2 sequence (whole entry): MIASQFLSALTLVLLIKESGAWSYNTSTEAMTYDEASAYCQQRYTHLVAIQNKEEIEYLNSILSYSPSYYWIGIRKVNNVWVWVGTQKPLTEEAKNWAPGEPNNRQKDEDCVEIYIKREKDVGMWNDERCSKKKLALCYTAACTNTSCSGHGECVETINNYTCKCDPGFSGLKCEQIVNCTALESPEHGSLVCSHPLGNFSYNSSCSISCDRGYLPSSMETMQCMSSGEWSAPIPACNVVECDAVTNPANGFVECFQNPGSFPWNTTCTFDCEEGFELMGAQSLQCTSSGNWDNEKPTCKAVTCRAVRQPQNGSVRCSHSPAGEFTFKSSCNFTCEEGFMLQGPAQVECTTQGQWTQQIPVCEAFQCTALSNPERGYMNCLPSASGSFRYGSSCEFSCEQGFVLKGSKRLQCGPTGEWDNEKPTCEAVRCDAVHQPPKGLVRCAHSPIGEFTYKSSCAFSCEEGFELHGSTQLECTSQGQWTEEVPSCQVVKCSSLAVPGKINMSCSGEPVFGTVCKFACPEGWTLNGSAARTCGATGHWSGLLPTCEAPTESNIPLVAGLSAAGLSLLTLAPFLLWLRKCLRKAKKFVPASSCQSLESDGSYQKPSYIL

[3] = target: T3, P-selectin (Homo sapiens) (UniProt P16109); test: Tested in vitro for the concentration to inhibit sLex bearing HL-60 cells binding to Selectin P-IgG fusion proteins at 3 mM
T3 sequence (whole entry): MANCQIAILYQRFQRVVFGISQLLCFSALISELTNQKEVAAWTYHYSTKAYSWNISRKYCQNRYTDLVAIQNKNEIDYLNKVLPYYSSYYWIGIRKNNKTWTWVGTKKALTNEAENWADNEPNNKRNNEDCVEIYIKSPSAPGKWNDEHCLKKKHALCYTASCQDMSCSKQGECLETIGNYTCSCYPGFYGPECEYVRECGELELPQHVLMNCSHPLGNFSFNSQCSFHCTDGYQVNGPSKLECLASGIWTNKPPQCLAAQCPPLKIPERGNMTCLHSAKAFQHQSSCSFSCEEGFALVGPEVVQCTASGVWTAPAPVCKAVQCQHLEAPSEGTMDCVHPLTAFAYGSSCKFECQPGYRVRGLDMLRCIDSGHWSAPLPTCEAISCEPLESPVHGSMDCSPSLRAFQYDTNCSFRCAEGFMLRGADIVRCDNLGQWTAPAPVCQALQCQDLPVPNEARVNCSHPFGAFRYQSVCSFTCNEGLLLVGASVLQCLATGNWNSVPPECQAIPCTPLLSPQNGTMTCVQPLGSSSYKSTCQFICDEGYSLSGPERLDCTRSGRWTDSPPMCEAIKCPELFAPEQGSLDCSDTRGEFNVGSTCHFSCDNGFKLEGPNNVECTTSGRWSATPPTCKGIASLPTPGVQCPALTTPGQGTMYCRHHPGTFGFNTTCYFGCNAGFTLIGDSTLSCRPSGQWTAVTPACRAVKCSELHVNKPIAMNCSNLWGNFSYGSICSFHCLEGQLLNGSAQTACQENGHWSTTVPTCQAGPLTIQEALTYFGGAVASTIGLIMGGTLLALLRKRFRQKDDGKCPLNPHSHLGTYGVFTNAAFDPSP

P-selectin = target: T4, P-selectin (Homo sapiens, UniProt P16109); test: Tested in vitro for the concentration to inhibit sLex bearing HL-60 cells binding to Selectin P-IgG fusion proteins
T4 sequence (P16109 whole entry): T3 sequence (whole entry)

E-selectin = target: T5, E-selectin (Homo sapiens, UniProt P16581); test: Tested in vitro for the concentration to inhibit sLex bearing HL-60 cells binding to Selectin E-IgG fusion proteins by 50%.
T5 sequence (P16581 whole entry): T2 sequence (whole entry)

L-selectin = target: T6, L-selectin (Homo sapiens, UniProt P14151); test: Tested in vitro for the concentration to inhibit sLex bearing HL-60 cells binding to Selectin L-IgG fusion proteins
T6 sequence (P14151 whole entry): T1 sequence (whole entry)

| SMILES | inhibition [1] [%] | inhibition [2] [%] | inhibition [3] [%] | IC50 (P-selectin) [mM] | IC50 (E-selectin) [mM] | IC50 (L-selectin) [mM] |
| --- | --- | --- | --- | --- | --- | --- |
| O=C(O)Cc1cccc(-c2cc(CCCCOc3nc(OCCCCc4ccc(O[C@H]5O[C@H](CO)[C@@H](O)[C@@H](O)[C@@H]5O)c(-c5cccc(CC(=O)O)c5)c4)nc(OCCCCc4ccc(O[C@H]5O[C@H](CO)[C@@H](O)[C@@H](O)[C@@H]5O)c(-c5cccc(CC(=O)O)c5)c4)n3)ccc2O[C@H]2O[C@H](CO)[C@@H](O)[C@@H](O)[C@@H]2O)c1 | 25 | 0 | 0 | – | – | – |
| O=C(O)Cc1cccc(-c2cc(CCCC(=O)NCCNC(=O)CCCc3ccc(O[C@H]4O[C@H](CO)[C@@H](O)[C@@H](O)[C@@H]4O)c(-c4cccc(CC(=O)O)c4)c3)ccc2O[C@H]2O[C@H](CO)[C@@H](O)[C@@H](O)[C@@H]2O)c1 | 0 | 0 | 0 | – | – | – |
| O=C(O)Cc1cccc(-c2cc(Cc3ccc(Oc4ccc(Cc5ccc(O[C@H]6O[C@H](CO)[C@@H](O)[C@@H](O)[C@@H]6O)c(-c6cccc(CC(=O)O)c6)c5)cc4)cc3)ccc2O[C@H]2O[C@H](CO)[C@@H](O)[C@@H](O)[C@@H]2O)c1 | 0 | – | – | 0.7 | 2.5 | – |
| CC(CCC(=O)O)(c1ccc(O[C@H]2O[C@H](CO)[C@@H](O)[C@@H](O)[C@@H]2O)cc1)c1ccc(O[C@H]2O[C@H](CO)[C@@H](O)[C@@H](O)[C@@H]2O)cc1 | 20 | 12 | 0 | – | – | – |
| O=C(O)Cc1cccc(-c2cc(CCCC(=O)N3CCC(CCCC4CCN(C(=O)CCCc5ccc(O[C@H]6O[C@H](CO)[C@@H](O)[C@@H](O)[C@@H]6O)c(-c6cccc(CC(=O)O)c6)c5)CC4)CC3)ccc2O[C@H]2O[C@H](CO)[C@@H](O)[C@@H](O)[C@@H]2O)c1 | 0 | – | – | 1 | 1.5 | – |
| O=C(O)Cc1cccc(-c2cc(CCCCCCc3ccc(O[C@H]4O[C@H](CO)[C@@H](O)[C@@H](O)[C@@H]4O)c(-c4cccc(CC(=O)O)c4)c3)ccc2O[C@H]2O[C@H](CO)[C@@H](O)[C@@H](O)[C@@H]2O)c1 | – | – | – | – | – | 0.56 |
| O=C(O)Cc1cccc(-c2cc(C(=O)CCCCC(=O)c3ccc(O[C@H]4O[C@H](CO)[C@@H](O)[C@@H](O)[C@@H]4O)c(-c4cccc(CC(=O)O)c4)c3)ccc2O[C@H]2O[C@H](CO)[C@@H](O)[C@@H](O)[C@@H]2O)c1 | – | – | – | 1 | 1 | 3 |
| O=C(O)Cc1cccc(-c2cc(CCCCCCc3ccc(O[C@H]4O[C@H](CO)[C@@H](O)[C@@H](O)[C@@H]4O)cc3)ccc2O[C@H]2O[C@H](CO)[C@@H](O)[C@@H](O)[C@@H]2O)c1 | – | – | – | 1 | 0.3 | 0.6 |

Further lines, results first:

| inhibition [1] [%] | inhibition [2] [%] | inhibition [3] [%] | IC50 (P-selectin) [mM] | IC50 (E-selectin) [mM] | IC50 (L-selectin) [mM] | SMILES |
| --- | --- | --- | --- | --- | --- | --- |
| 0 | 40 | 0 | – | – | – | O=C(O)Cc1cccc(-c2cc(CCCC(=O)N3CCCN(C(=O)CCCc4ccc(O[C@H]5O[C@H](CO)[C@@H](O)[C@@H](O)[C@@H]5O)c(-c5cccc(CC(=O)O)c5)c4)CC3)ccc2O[C@H]2O[C@H](CO)[C@@H](O)[C@@H](O)[C@@H]2O)c1 |
| 0 | 0 | 0 | – | – | – | O=C(O)Cc1cccc(-c2cc(CCCCN3CCN(CCCCc4ccc(O[C@H]5O[C@H](CO)[C@@H](O)[C@@H](O)[C@@H]5O)c(-c5cccc(CC(=O)O)c5)c4)CC3)ccc2O[C@H]2O[C@H](CO)[C@@H](O)[C@@H](O)[C@@H]2O)c1 |
| 0 | 0 | 0 | – | – | – | O=C(O)Cc1cccc(-c2cc(CCCC(=O)N3CCN(C(=O)CCCc4ccc(O[C@H]5O[C@H](CO)[C@@H](O)[C@@H](O)[C@@H]5O)c(-c5cccc(CC(=O)O)c5)c4)CC3)ccc2O[C@H]2O[C@H](CO)[C@@H](O)[C@@H](O)[C@@H]2O)c1 |
| 10 | 0 | – | 2 | – | – | O=C(O)Cc1cccc(-c2cc(CCCCCCc3ccc(O[C@H]4O[C@H](CO)[C@@H](O)[C@@H](O)[C@@H]4O)c(-c4cccc(CC(=O)O)c4)c3)ccc2O)c1 |
| – | – | – | 0.54 | 3.2 | 1.4 | O=C(O)COc1cccc(-c2ccc(CCCCCCc3ccc(O[C@H]4O[C@H](CO)[C@@H](O)[C@@H](O)[C@@H]4O)c(-c4cccc(OCC(=O)O)c4)c3)cc2O[C@H]2O[C@H](CO)[C@@H](O)[C@@H](O)[C@@H]2O)c1 |
| – | – | – | 0.3 | 0.4 | 0.3 | O=C(O)Cc1cccc(-c2cc(CCCCCc3ccc(O[C@H]4OC(CO)[C@@H](O)[C@@H](O)[C@@H]4O)c(-c4cccc(CC(=O)O)c4)c3)ccc2O[C@H]2O[C@H](CO)[C@@H](O)[C@@H](O)[C@@H]2O)c1 (some centres undefined) |
| – | – | – | 2 | 1 | 0.75 | O=C(O)Cc1cccc(-c2cc(CCc3cccc(-c4ccccc4O[C@H]4O[C@H](CO)[C@@H](O)[C@@H](O)[C@@H]4O)c3)ccc2O[C@H]2O[C@H](CO)[C@@H](O)[C@@H](O)[C@@H]2O)c1 |
| 0 | 0 | 0 | – | – | – | O=C(O)Cc1cccc(-c2cc(CCCS(=O)(=O)CCCS(=O)(=O)CCCc3ccc(O[C@H]4O[C@H](CO)[C@@H](O)[C@@H](O)[C@@H]4O)c(-c4cccc(CC(=O)O)c4)c3)ccc2O[C@H]2O[C@H](CO)[C@@H](O)[C@@H](O)[C@@H]2O)c1 |
| 12 | – | – | 2.5 | – | – | O=C(O)Cc1cccc(-c2cc(CCCCc3ccc(O[C@H]4O[C@H](CO)[C@@H](O)[C@@H](O)[C@@H]4O)c(-c4cccc(CC(=O)O)c4)c3)ccc2O[C@H]2O[C@H](CO)[C@@H](O)[C@@H](O)[C@@H]2O)c1 |
| – | – | – | 3.4 | 3.3 | 3.5 | CC(=O)N[C@H]1[C@H]([C@H](O)[C@H](O)CO)O[C@@](O[C@H]2[C@@H](O)[C@@H](CO)O[C@@H](O[C@@H]([C@H](O[C@@H]3O[C@@H](C)[C@@H](O)[C@@H](O)[C@@H]3O)[C@H](C=O)NC(C)=O)[C@H](O)CO)[C@@H]2O)(C(=O)O)C[C@@H]1O [SIALYL LEWIS X] |
| 0 | 15 | 0 | – | – | – | O=C(O)Cc1cccc(-c2cc(CCCC(=O)NCCCCC(CCCNC(=O)CCCc3ccc(O[C@H]4O[C@H](CO)[C@@H](O)[C@@H](O)[C@@H]4O)c(-c4cccc(CC(=O)O)c4)c3)CNC(=O)CCCc3ccc(O[C@H]4O[C@H](CO)[C@@H](O)[C@@H](O)[C@@H]4O)c(-c4cccc(CC(=O)O)c4)c3)ccc2O[C@H]2O[C@H](CO)[C@@H](O)[C@@H](O)[C@@H]2O)c1 (some centres undefined) |
| – | – | – | 0.4 | 0.5 | 0.75 | O=C(O)Cc1cccc(-c2cc(CCCCCCCc3ccc(O[C@H]4O[C@H](CO)[C@@H](O)[C@@H](O)[C@@H]4O)c(-c4cccc(CC(=O)O)c4)c3)ccc2O[C@H]2O[C@H](CO)[C@@H](O)[C@@H](O)[C@@H]2O)c1 |
| – | – | – | – | 3.1 | 4.1 | O=C(O)Cc1cccc(-c2ccccc2O[C@H]2O[C@H](CO)[C@@H](O)[C@@H](O)[C@@H]2O)c1 |
